This experiment concerns the target T1, BCL6 (Homo sapiens, UniProt P41182).
T1 construct: endogenous in cells; host or cells: T47D breast cancer epithelial cells
The experiment is described as follows: Immunofluorescence protocol for high content imaging of BCL6 (degradation) in T47D cells, 3 days compound treatment. The conditions noted are these: for DC50: read-out: Mean DC50 (nM)* category; for Dmax: read-out: Mean Dmax (%)** category. Type of experiment: cell-based. The method, boiled down: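 For degradation, compound series (3-fold, 11 points, top 0.1 or 1 μM final) were added to adherent T47D cultures for 3 days. BCL6 immunostaining used a rabbit antibody at 1:300 and an Alexa-488 secondary, with imaging at 10× magnification.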

[1] abbreviates: T47D cells, 3 days compound treatment.

The text below walks through data of patent US11986532B2 (Arvinas Operations, Inc., priority 2021, dated 2024).

Like-named read-outs stand apart in the source and are kept apart here.

Regarding `CNC(=O)COc1cc2cc(Nc3nc(N4CCC5(CCN(CC6(F)CCN(c7c(F)ccc8c7C(=O)N(C7CCC(=O)NC7=O)C8)CC6)CC5)CC4)ncc3Cl)ccc2n(C(C)C)c1=O` (centres unmarked) [Compound 152, 2-{[6-({5-chloro-2-[9-({1-[2-(2,6-dioxopiperidin-3-yl)-5-fluoro-3-oxo-2,3-dihydro-1H-isoindol-4-yl]-4-fluoropiperidin-4-yl}methyl)-3,9-diazaspiro[5.5]undecan-3-yl]pyrimidin-4-yl}amino)-2-oxo-1-(propan-2-yl)-1,2-dihydroquinolin-3-yl]oxy}-N-methylacetamide], the DC50 under setting [1] was 10 to 50 nM.

On to `CNC(=O)COc1cc2cc(Nc3nc(N4CCC(O[C@H]5C[C@H](N6CCC(c7cc8c(cc7F)C(=O)N(C7CCC(=O)NC7=O)C8)CC6)C5)CC4)ncc3Cl)ccc2n(C(C)C)c1=O` (some centres unmarked) [Compound 79, 2-({6-[(5-chloro-2-{4-[(1r,3r)-3-{4-[2-(2,6-dioxopiperidin-3-yl)-6-fluoro-1-oxo-2,3-dihydro-1H-isoindol-5-yl]piperidin-1-yl}cyclobutoxy]piperidin-1-yl}pyrimidin-4-yl)amino]-2-oxo-1-(propan-2-yl)-1,2-dihydroquinolin-3-yl}oxy)-N-methylacetamide], for which, under setting [1], the DC50 is below 10 nM and the Dmax lay within 50 to 70%.

For `CNC(=O)COc1cc2cc(Nc3nc(N4CCC(O[C@H]5C[C@H](N6CC7(CCN(c8ccc9c(c8)C(=O)N(C8CCC(=O)NC8=O)C9=O)C7)C6)C5)CC4)ncc3Cl)ccc2n(C(C)C)c1=O` (some centres unmarked) [Compound 350, 2-({6-[(5-chloro-2-{4-[(1r,3r)-3-{6-[2-(2,6-dioxopiperidin-3-yl)-1,3-dioxo-2,3-dihydro-1H-isoindol-5-yl]-2,6-diazaspiro [3.4]octan-2-yl}cyclobutoxy]piperidin-1-yl}pyrimidin-4-yl)amino]-2-oxo-1-(propan-2-yl)-1,2-dihydroquinolin-3-yl}oxy)-N-methylacetamide], the DC50 was below 10 nM. The Dmax (T47D) was at least 70%.

Take `CNC(=O)COc1cc2cc(Nc3nc(N4CCC(CN5CCC6(CC5)CC5(CN(c7ccc8c(c7F)CN(C7CCC(=O)NC7=O)C8=O)C5)C6)CC4)ncc3Cl)ccc2n(C(C)C)c1=O` (centres unmarked) [Compound 427]: the DC50 is below 10 nM. The Dmax (T47D) was at least 70%.

With `CNC(=O)COc1cc2cc(Nc3nc(N4CCC(O[C@H]5C[C@H](N6CCC(c7ccc8c(c7F)CN(C7CCC(=O)NC7=O)C8=O)CC6)C5)CC4)ncc3Cl)ccc2n(C2CCCC2)c1=O` (some centres unmarked) [Compound 191, 2-({6-[(5-chloro-2-{4-[(1r,3r)-3-{4-[2-(2,6-dioxopiperidin-3-yl)-4-fluoro-1-oxo-2,3-dihydro-1H-isoindol-5-yl]piperidin-1-yl}cyclobutoxy]piperidin-1-yl}pyrimidin-4-yl)amino]-1-cyclopentyl-2-oxo-1,2-dihydroquinolin-3-yl}oxy)-N-methylacetamide], under setting [1], the DC50 was below 10 nM and the Dmax was at least 70%.

Take `CNC(=O)COc1cc2c(F)c(Nc3cc(N4CCC(F)(CN5CCC6(CC5)CN(c5ccc7c(c5F)CN(C5CCC(=O)NC5=O)C7=O)C6)CC4)ncc3Cl)ccc2n(C(C)C)c1=O` (centres unmarked) [Compound 259, 2-{[6-({5-chloro-2-[4-({2-[2-(2,6-dioxopiperidin-3-yl)-4-fluoro-1-oxo-2,3-dihydro-1H-isoindol-5-yl]-2,7-diazaspiro[3.5]nonan-7-yl}methyl)-4-fluoropiperidin-1-yl]pyridin-4-yl}amino)-5-fluoro-2-oxo-1-(propan-2-yl)-1,2-dihydroquinolin-3-yl]oxy}-N-methylacetamide]: the DC50 is below 10 nM. In addition, the Dmax (T47D) lay in the range of 50 to 70%.

As to `CNC(=O)COc1cc2cc(Nc3nc(N4CCC(CN5CCC6(CN(c7ccc8c(c7)C(=O)N(C7CCC(=O)NC7=O)C8=O)C6)C(F)C5)CC4)ncc3Cl)ccc2n(C(C)C)c1=O` (centres unmarked) [Compound 134, 2-{[6-({5-chloro-2-[4-({2-[2-(2,6-dioxopiperidin-3-yl)-1,3-dioxo-2,3-dihydro-1H-isoindol-5-yl]-5-fluoro-2,7-diazaspiro[3.5]nonan-7-yl}methyl)piperidin-1-yl]pyrimidin-4-yl}amino)-2-oxo-1-(propan-2-yl)-1,2-dihydroquinolin-3-yl]oxy}-N-methylacetamide], under setting [1], the DC50 is below 10 nM and the Dmax was below 50%.

Regarding `CNC(=O)COc1cc2cc(Nc3nc(N4CCC(O[C@H]5C[C@H](N6CCCC7(CCN(c8ccc9c(c8)CN(C8CCC(=O)NC8=O)C9=O)C7)C6)C5)CC4)ncc3Cl)ccc2n(C(C)C)c1=O` (some centres unmarked) [Compound 356, 2-({6-[(5-chloro-2-{4-[(1r,3r)-3-{2-[2-(2,6-dioxopiperidin-3-yl)-1-oxo-2,3-dihydro-1H-isoindol-5-yl]-2,7-diazaspiro [4.5]decan-7-yl}cyclobutoxy]piperidin-1-yl}pyrimidin-4-yl)amino]-2-oxo-1-(propan-2-yl)-1,2-dihydroquinolin-3-yl}oxy)-N-methylacetamide], the 50% degradation concentration (DC50) is below 10 nM. Also, under “T47D”, the Dmax is at least 70%.

Turning to `CNC(=O)COc1cc2cc(Nc3nc(N4CCC5(CCN(CC6CCN(c7cccc8c7C(=O)N(C7CCC(=O)NC7=O)C8=O)CC6)C5)C4)ncc3Cl)ccc2n(C(C)C)c1=O` (centres unmarked) [Compound 11], under setting [1], the DC50 fell in the range of 10 to 50 nM and the Dmax was at least 70%.

As to `CNC(=O)COc1cc2cc(Nc3nc(N4CCC(O[C@H]5C[C@H](N6CC7(CCN(c8ccc9c(c8)C(=O)N(C8CCC(=O)NC8=O)C9=O)CC7)C6)C5)CC4)ncc3Cl)ccc2n(C(C)C)c1=O` (some centres unmarked) [Compound 365, 2-({6-[(5-chloro-2-{4-[(1r,3r)-3-{7-[2-(2,6-dioxopiperidin-3-yl)-1,3-dioxo-2,3-dihydro-1H-isoindol-5-yl]-2,7-diazaspiro [3.5]nonan-2-yl}cyclobutoxy]piperidin-1-yl}pyrimidin-4-yl)amino]-2-oxo-1-(propan-2-yl)-1,2-dihydroquinolin-3-yl}oxy)-N-methylacetamide], the DC50 was below 10 nM. The greatest degradation seen (Dmax) (T47D) lay in the range of 50 to 70%.

As for `CNC(=O)COc1cc2cc(Nc3nc(N4CCC(CN5CC6(CCN(c7cc8c(cc7OC)C(=O)N(C7CCC(=O)NC7=O)C8)CC6)C5)CC4)ncc3Cl)ccc2n(C(C)C)c1=O` (centres unmarked) [Compound 85, 2-{[6-({5-chloro-2-[4-({7-[2-(2,6-dioxopiperidin-3-yl)-6-methoxy-1-oxo-2,3-dihydro-1H-isoindol-5-yl]-2,7-diazaspiro[3.5]nonan-2-yl}methyl)piperidin-1-yl]pyrimidin-4-yl}amino)-2-oxo-1-(propan-2-yl)-1,2-dihydroquinolin-3-yl]oxy}-N-methylacetamide], under setting [1], the DC50 is below 10 nM and the Dmax was 50 to 70%.

As for `CC[C@@H]1CN([C@H]2C[C@H](OC3CCN(c4ncc(Cl)c(Nc5ccc6c(c5)cc(OCC(=O)NC)c(=O)n6C(C)C)n4)CC3)C2)CCN1c1ccc2c(c1Cl)CN(C1CCC(=O)NC1=O)C2=O` (stereo partly drawn) [Compound 205, 2-({6-[(5-chloro-2-{4-[(1r,3r)-3-[(3R)-4-[4-chloro-2-(2,6-dioxopiperidin-3-yl)-1-oxo-2,3-dihydro-1H-isoindol-5-yl]-3-ethylpiperazin-1-yl]cyclobutoxy]piperidin-1-yl}pyrimidin-4-yl)amino]-2-oxo-1-(propan-2-yl)-1,2-dihydroquinolin-3-yl}oxy)-N-methylacetamide], under setting [1], the DC50 was below 10 nM and the Dmax was at least 70%.

As a reminder, the DC50 is the midpoint of the concentration-degradation curve. What is called Dmax is the greatest extent of degradation seen.
